Measured values taken from ChEMBL document CHEMBL2046326, “Selective hydroboration of dieneamines. Formation of hydroxyalkylphenothiazines as MDR modulators” (Bioorg Med Chem, 2012).
Calls of active or inactive are those of the source. The rule behind the calls is not given here.

Columns and labels:
[1] = tested on: Hepatocyte; assay: Inhibition of P-glycoprotein in rat primary hepatocytes assessed as increase in intracellular rhodamine 123 accumulation at 100 uM after 3 hrs relative to control; assay type: cell-based
[2] = tested on: Hepatocyte; assay: Inhibition of P-glycoprotein in rat primary hepatocytes assessed as increase in intracellular rhodamine 123 accumulation after 3 hrs; assay type: cell-based
[3] = tested on: Hepatocyte; assay: Inhibition of P-glycoprotein in rat primary hepatocytes assessed as increase in intracellular rhodamine 123 accumulation at 100 uM after 3 hrs; assay type: cell-based
[4] = tested on: Hepatocyte; conditions: Rattus norvegicus, 10 to 50 uM

COc1ccc(-n2nnc(CCCCN3c4ccccc4Sc4ccccc43)n2)cc1
inhibition [1]: 20%

COc1ccc(-n2nnc(CCC(O)CN3c4ccccc4Sc4ccccc43)n2)cc1 (stereo not given)
inhibition [2]: Dose-dependent effect

COc1ccc(-n2nnc(/C=C\C=C\N3c4ccccc4Sc4ccccc43)n2)cc1
inhibition [3]: inactive

COc1ccc(-n2nnc(CCCN3c4ccccc4Sc4ccccc43)n2)cc1
inhibition [3]: inactive

COc1ccc(CCN(C)CCCC(C#N)(c2ccc(OC)c(OC)c2)C(C)C)cc1OC (stereo not given)
inhibition [4]: Active
